pKi: −log10 of the molar value.
Each molecule was assayed against Carbonic anhydrase 9 (Homo sapiens, UniProt Q16790).

NS(=O)(=O)c1ccc(C(=O)OCc2cn([C@@H]3OC[C@@H](O)[C@@H](O)[C@@H]3O)nn2)cc1 and NS(=O)(=O)c1ccc(C(=O)OCc2cn([C@@H]3O[C@H](CO)[C@H](O)[C@H](O)[C@H]3O)nn2)cc1 are within 0.2 log units of each other in pKi: 7.02 for the first, 7.19 for the second.

First: CO[C@H]1O[C@H](Cn2cc(CNC(=O)c3ccc(S(N)(=O)=O)cc3)nn2)[C@@H](O)[C@H](O)[C@H]1O
Second: NS(=O)(=O)c1ccc(C(=O)NCc2cn([C@@H]3O[C@H](CO)[C@@H](O)[C@H](O)[C@H]3O)nn2)cc1
The pKi of the first is 0.34 log units higher: 6.69 for the first, 6.35 for the second.

Going from CC(=O)OC[C@H]1O[C@@H](n2cc(CNC(=O)c3ccc(S(N)(=O)=O)cc3)nn2)[C@H](OC(C)=O)[C@@H](OC(C)=O)[C@H]1OC(C)=O to CC(=O)OC[C@H]1O[C@@H](n2cc(CNC(=O)c3ccc(S(N)(=O)=O)cc3)nn2)[C@H](OC(C)=O)[C@@H](OC(C)=O)[C@@H]1OC(C)=O, the pKi falls from 7.12 to 6.37 (0.75 log units). The first binds more tightly here.

First: C#CCOC(=O)c1ccc(S(N)(=O)=O)cc1
Second: NS(=O)(=O)c1ccc(C(=O)OCc2cn([C@@H]3O[C@H](CO)[C@@H](O)[C@H](O)[C@H]3O)nn2)cc1
The pKi of the first is 0.24 log units higher: 6.98 for the first, 6.74 for the second.

Going from CC(=O)N[C@@H]1[C@@H](OC(C)=O)[C@H](OC(C)=O)[C@@H](COC(C)=O)O[C@H]1n1cc(COC(=O)c2ccc(S(N)(=O)=O)cc2)nn1 to COC(=O)[C@H]1O[C@@H](n2cc(CNC(=O)c3ccc(S(N)(=O)=O)cc3)nn2)[C@H](OC(C)=O)[C@@H](OC(C)=O)[C@@H]1OC(C)=O, the pKi rises from 5.92 to 6.33 (0.41 log units). The second binds more tightly here.

Compared with CC(=O)OC[C@H]1O[C@@H](n2cc(COC(=O)c3ccc(S(N)(=O)=O)cc3)nn2)[C@H](OC(C)=O)[C@@H](OC(C)=O)[C@@H]1O[C@H]1O[C@H](COC(C)=O)[C@@H](OC(C)=O)[C@H](OC(C)=O)[C@H]1OC(C)=O, COC(=O)[C@H]1O[C@@H](n2cc(COC(=O)c3ccc(S(N)(=O)=O)cc3)nn2)[C@H](O)[C@@H](O)[C@@H]1O is 0.27 log units lower in pKi: 6.89 for the first, 6.62 for the second.
